From patent publication US10905680B2, “Methods of treatment for cholestatic and fibrotic diseases” (Genfit, priority 2016, dated 2021)

Key:
HSC = assay: Toxicity assays in HSC; format: cell-based, human; details: data not shown
[1] = test system: Human Intestinal Myofibroblasts (InMyoFib); assay: TGFβ1-induced expression of α-SMA protein in human intestinal fibroblasts (ELISA); format: cell-based; details: concentration of 1 μM; TGFβ1 3 ng/ml, 48 hours
Experimental: NTZ (A) or TZ (B) were added to serum-deprived intestinal fibroblasts (InMyoFib) 1 hour before the activation with TGFβ1 (3 ng/ml). After 48 hours of incubation, the expression of α-SMA was measured by ELISA. The obtained values were transformed into percentage inhibition over TGFβ1 control. Data are presented as mean (triplicates)±standard deviation (SD). Statistical analyses were performed by one-way ANOVA followed by Bonferroni post-hoc tests, using Sigma Plot 11.0 software. [*: p<0.05; **: p<0.01; ***: p<0.001 (comparison versus TGFβ1 3 ng/mL group)].
The Human Intestinal Myofibroblasts (InMyoFib) (Lonza) were cultured in Smooth Muscle Cell Basal Medium (SmBM-2™) (Lonza cat # CC-3181) that was supplemented with SmGM™-2 BulletKit™ (Lonza cat # CC-4149). The complete medium contains 5% fetal bovine serum. For the activation experiments with TGFβ1, the inMyoFib were plated at a density of 10×10^3 cells per well in 96-well plates. The next day, cell-culture medium was removed, and cells were washed with PBS (Invitrogen cat #14190). InMyoFib were deprived for 24 hours in serum-free, insulin-free and rhFGF-B-free medium. […]
The level of α-SMA was measured using a Sandwich ELISA. […]

[2] = test system: Normal Human Dermal Fibroblasts (NHDF); assay: ACTA2 transcripts in TGFβ1-induced normal human dermal fibroblasts (RT-qPCR); format: cell-based; details: TGFβ1 10 ng/ml, 24 hours
Experimental: Serum-deprived normal human dermal fibroblasts (NHDF) were preincubated for 1 hour with NTZ (A) or TZ (B) before the activation with TGFβ1 (10 ng/ml). After 24 hours of incubation, the expression of ACTA2 was measured by RT-qPCR. The expression values were then transformed as fold induction over TGFβ1 control. Data are presented as mean (triplicates)±SEM (Standard Error of Mean). Statistical analyses were performed by a student's t-test (for TGFβ-stimulated vs unstimulated conditions); [#: p<0.05; ## p<0.01; ### p<0.001] or by aone-way ANOVA followed by Bonferroni post-hoc tests (for compound-treated samples vs TGFβ1 control). [*: p<0.05; **: p<0.01; ***: p<0.001], using GraphPad Prism 7.04 software.
Normal Human Dermal Fibroblasts (NHDF) (Lonza) were cultured in Fibroblast Basal Medium (FBM) (Lonza cat # CC-3131) supplemented with FGM-2 SingleQuots™ Kit (Lonza cat # CC-3132) and 2% FBS. […]
Quantitative PCR was then carried out using the MyiQ Single-Color Real-Time PCR Detection System (Biorad). […]
For each gene, the standard curves were drawn by selecting the best points (at least three points) in order to have PCR reaction efficiency close to 100% and a correlation coefficient close to 1. Expression levels were determined using the standard curve equation for both the housekeeping gene and the target gene (taking into account the specific PCR efficiency of each target gene).

With `O=C(Nc1ncc([N+](=O)[O-])s1)c1ccccc1O` [TZ, 2-hydroxy-N-(5-nitro-2-thiazolyl)benzamide] the “toxicity or apoptosis of HSC” value (HSC) was “not due to toxicity or apoptosis”, the “antifibrotic effects (α-SMA) in human Intestinal myofibroblasts” value [1] was “significant antifibrotic effects” and the “antifibrotic effects (ACTA2 transcripts) in TGFβ-activated normal human dermal fibroblasts” value [2] was “significant and dose-dependent antifibrotic effects”.
